# Assays:
# [1] = system: barnyardgrass; experiment: Test A pre-/postemergence greenhouse test; type: in vivo, Echinochloa crus-galli; settings: for Barnyardgrass plant response rating: 0 to 100 scale
# Summary of the method: (§1)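 Herbicidal effect is a visual injury score given about ten days post-treatment by comparison with untreated controls. Preemergence plots received a directed spray onto sown loam–sand soil; postemergence plants, at the one- to two-leaf stage and 2–10 cm tall, were sprayed at the same time.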
# [2] = system: morningglory; experiment: Test A pre-/postemergence greenhouse test; type: in vivo, Ipomoea spp.; settings: for Morningglory plant response rating: 0 to 100 scale
# Summary of the method: as §1
# [3] = system: blackgrass; experiment: Test C pre-/postemergence test; type: in vivo, Alopecurus myosuroides; settings: for Plant response rating, Blackgrass: scale 0 to 100, 0 no effect, 100 complete control
# Summary of the method: (§2)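 Seeds were planted and treated preemergence with test chemical in a non-phytotoxic solvent mixture containing surfactant. Postemergence applications of the same formulation went onto plants 2 to 18 cm tall (1- to 4-leaf stage). A dash marks no test result.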
# [4] = system: green foxtail; experiment: Test C pre-/postemergence test; type: in vivo, Setaria viridis; settings: for Plant response rating, Foxtail, Green: scale 0 to 100, 0 no effect, 100 complete control
# Summary of the method: as §2
# [5] = system: Italian ryegrass; experiment: Test C pre-/postemergence test; type: in vivo, Lolium multiflorum; settings: for Plant response rating, Ryegrass, Italian: scale 0 to 100, 0 no effect, 100 complete control
# Summary of the method: as §2
# [6] = system: wheat; experiment: Test C pre-/postemergence test; type: in vivo, Triticum aestivum; settings: for Wheat plant response rating: preemergence, scale 0 (no effect) to 100 (complete control); for Plant response rating, Wheat: scale 0 to 100, 0 no effect, 100 complete control
# Summary of the method: as §2
# [7] = system: cocklebur; experiment: Test C pre-/postemergence test; type: in vivo, Xanthium strumarium; settings: for Plant response rating, Cocklebur: scale 0 to 100, 0 no effect, 100 complete control
# Summary of the method: as §2
# [8] = system: corn; experiment: Test C pre-/postemergence test; type: in vivo, Zea mays; settings: for Plant response rating, Corn: scale 0 to 100, 0 no effect, 100 complete control
# Summary of the method: as §2
# [9] = system: crabgrass; experiment: Test C pre-/postemergence test; type: in vivo, Digitaria sanguinalis; settings: for Plant response rating, Crabgrass, Large: scale 0 to 100, 0 no effect, 100 complete control
# Summary of the method: as §2
# [10] = system: woolly cupgrass; experiment: Test C pre-/postemergence test; type: in vivo, Eriochloa villosa; settings: for Plant response rating, Cupgrass, Woolly: scale 0 to 100, 0 no effect, 100 complete control
# Summary of the method: as §2
# [11] = system: kochia; experiment: Test C pre-/postemergence test; type: in vivo, Kochia scoparia; settings: for Plant response rating, Kochia: scale 0 to 100, 0 no effect, 100 complete control
# Summary of the method: as §2
# [12] = system: morningglory; experiment: Test C pre-/postemergence test; type: in vivo, Ipomoea coccinea; settings: for Plant response rating, Morningglory: scale 0 to 100, 0 no effect, 100 complete control
# Summary of the method: as §2
# [13] = system: yellow nutsedge; experiment: Test C pre-/postemergence test; type: in vivo, Cyperus esculentus; settings: for Plant response rating, Nutsedge, Yellow: scale 0 to 100, 0 no effect, 100 complete control
# Summary of the method: as §2
# [14] = system: pigweed; experiment: Test C pre-/postemergence test; type: in vivo, Amaranthus retroflexus; settings: for Plant response rating, Pigweed: scale 0 to 100, 0 no effect, 100 complete control
# Summary of the method: as §2
# [15] = system: soybean; experiment: Test C pre-/postemergence test; type: in vivo, Glycine max; settings: for Plant response rating, Soybean: scale 0 to 100, 0 no effect, 100 complete control
# Summary of the method: as §2
# [16] = system: common (oilseed) sunflower; experiment: Test C pre-/postemergence test; type: in vivo, Helianthus annuus; settings: for Sunflower plant response rating: preemergence, scale 0 (no effect) to 100 (complete control)
# Summary of the method: as §2
# [17] = Postemergence, 125 g ai/ha, 0 is no effect, 100 is complete control
# [18] = Postemergence, 500 g ai/ha, 0 is no effect, 100 is complete control
# [19] = Preemergence, 125 g ai/ha, 0 no effect, 100 complete control
# [20] = Preemergence, 500 g ai/ha, 0 to 100 scale where 0 is no effect and 100 is complete control
# [21] = 31 g ai/ha, Preemergence, scale 0 to 100
# [22] = 62 g ai/ha, preemergence, scale 0 (no effect) to 100 (complete control)
# [23] = preemergence, 125 g ai/ha, scale 0 (no effect) to 100 (complete control)
structure (smiles),measurement,setting,value
CC(c1c(C(F)(F)F)nn(C)c1OC(F)F)S(=O)(=O)c1cccc[n+]1[O-] (stereo not drawn) [Compound 5],Barnyardgrass plant response rating,[1]; [17],80
same,Barnyardgrass plant response rating,[1]; [18],80
same,Barnyardgrass plant response rating,[1]; [19],70
same,"Plant response rating, Barnyardgrass",[1]; [20],90
same,Morningglory plant response rating,[2]; [17],60
same,Morningglory plant response rating,[2]; [18],90
same,Morningglory plant response rating,[2]; [19],90
same,"Plant response rating, Morningglory",[2]; [20],100
same,Blackgrass plant response rating,[3]; [21],80
same,Blackgrass plant response rating,[3]; [22],100
same,"Plant response rating (0 to 100), Blackgrass","[3]; Postemergence, 31 g ai/ha",0
same,"Plant response rating, Blackgrass","[3]; Postemergence, 62 g ai/ha",0
same,"Plant response rating, Blackgrass","[3]; Postemergence, 250 g ai/ha",40
same,"Plant response rating (0 to 100), Blackgrass","[3]; Preemergence, 250 g ai/ha",100
same,Blackgrass plant response rating,[3]; [23],100
same,"Foxtail, Green plant response rating",[4]; [21],100
same,"Foxtail, Green plant response rating",[4]; [22],100
same,"Plant response rating (0 to 100), Foxtail, Green","[4]; Postemergence, 31 g ai/ha",0
same,"Plant response rating, Foxtail, Green","[4]; Postemergence, 62 g ai/ha",0
same,"Plant response rating, Foxtail, Green","[4]; Postemergence, 125 g ai/ha",60
same,"Plant response rating, Foxtail, Green","[4]; Postemergence, 250 g ai/ha",65
same,"Plant response rating (0 to 100), Foxtail, Green","[4]; Preemergence, 250 g ai/ha",100
same,"Foxtail, Green plant response rating",[4]; [23],100
same,"Ryegrass, Italian plant response rating",[5]; [21],80
same,"Ryegrass, Italian plant response rating",[5]; [22],100
same,"Plant response rating (0 to 100), Ryegrass, Italian","[5]; Postemergence, 31 g ai/ha",0
same,"Plant response rating (0 to 100), Ryegrass, Italian","[5]; Postemergence, 62 g ai/ha",0
same,"Plant response rating, Ryegrass, Italian","[5]; Postemergence, 125 g ai/ha",40
same,"Plant response rating, Ryegrass, Italian","[5]; Postemergence, 250 g ai/ha",50
same,"Plant response rating (0 to 100), Ryegrass, Italian","[5]; Preemergence, 250 g ai/ha",100
same,"Ryegrass, Italian plant response rating",[5]; [23],100
same,Wheat plant response rating,[6]; 62 g ai/ha,20
same,"Plant response rating (0 to 100), Wheat","[6]; Postemergence, 31 g ai/ha",0
same,"Plant response rating (0 to 100), Wheat","[6]; Postemergence, 62 g ai/ha",0
same,"Plant response rating, Wheat","[6]; Postemergence, 125 g ai/ha",30
same,"Plant response rating, Wheat","[6]; Postemergence, 250 g ai/ha",30
same,"Plant response rating (0 to 100), Wheat","[6]; Preemergence, 250 g ai/ha",98
same,Wheat plant response rating,[6]; 125 g ai/ha,70
same,Cocklebur plant response rating,[7]; [21],0
same,Cocklebur plant response rating,[7]; [22],0
same,"Plant response rating (0 to 100), Cocklebur","[7]; Postemergence, 31 g ai/ha",0
same,"Plant response rating, Cocklebur","[7]; Postemergence, 62 g ai/ha",0
same,"Plant response rating, Cocklebur","[7]; Postemergence, 125 g ai/ha",0
same,"Plant response rating, Cocklebur","[7]; Postemergence, 250 g ai/ha",10
same,"Plant response rating (0 to 100), Cocklebur","[7]; Preemergence, 250 g ai/ha",0
same,Cocklebur plant response rating,[7]; [23],0
same,Corn plant response rating,[8]; [21],0
same,Corn plant response rating,[8]; [22],40
same,"Plant response rating (0 to 100), Corn","[8]; Postemergence, 31 g ai/ha",0
same,"Plant response rating, Corn","[8]; Postemergence, 62 g ai/ha",0
same,"Plant response rating, Corn","[8]; Postemergence, 125 g ai/ha",0
same,"Plant response rating, Corn","[8]; Postemergence, 250 g ai/ha",0
same,"Plant response rating (0 to 100), Corn","[8]; Preemergence, 250 g ai/ha",95
same,Corn plant response rating,[8]; [23],55
same,"Crabgrass, Large plant response rating",[9]; [21],98
same,"Crabgrass, Large plant response rating",[9]; [22],100
same,"Plant response rating (0 to 100), Crabgrass, Large","[9]; Postemergence, 31 g ai/ha",5
same,"Plant response rating, Crabgrass, Large","[9]; Postemergence, 62 g ai/ha",20
same,"Plant response rating, Crabgrass, Large","[9]; Postemergence, 125 g ai/ha",60
same,"Plant response rating, Crabgrass, Large","[9]; Postemergence, 250 g ai/ha",60
same,"Plant response rating (0 to 100), Crabgrass, Large","[9]; Preemergence, 250 g ai/ha",100
same,"Crabgrass, Large plant response rating",[9]; [23],100
same,"Cupgrass, Woolly plant response rating",[10]; [21],85
same,"Cupgrass, Woolly plant response rating",[10]; [22],90
same,"Plant response rating (0 to 100), Cupgrass, Woolly","[10]; Postemergence, 31 g ai/ha",0
same,"Plant response rating, Cupgrass, Woolly","[10]; Postemergence, 62 g ai/ha",40
same,"Plant response rating, Cupgrass, Woolly","[10]; Postemergence, 125 g ai/ha",40
same,"Plant response rating, Cupgrass, Woolly","[10]; Postemergence, 250 g ai/ha",50
same,"Plant response rating (0 to 100), Cupgrass, Woolly","[10]; Preemergence, 250 g ai/ha",100
same,"Cupgrass, Woolly plant response rating",[10]; [23],100
same,Kochia plant response rating,[11]; [21],80
same,Kochia plant response rating,[11]; [22],100
same,"Plant response rating (0 to 100), Kochia","[11]; Postemergence, 31 g ai/ha",0
same,"Plant response rating, Kochia","[11]; Postemergence, 62 g ai/ha",0
same,"Plant response rating, Kochia","[11]; Postemergence, 125 g ai/ha",0
same,"Plant response rating, Kochia","[11]; Postemergence, 250 g ai/ha",0
same,"Plant response rating (0 to 100), Kochia","[11]; Preemergence, 250 g ai/ha",100
same,Kochia plant response rating,[11]; [23],100
same,Morningglory plant response rating,[12]; [21],85
same,Morningglory plant response rating,[12]; [22],100
same,"Plant response rating (0 to 100), Morningglory","[12]; Postemergence, 31 g ai/ha",5
same,"Plant response rating, Morningglory","[12]; Postemergence, 62 g ai/ha",5
same,"Plant response rating, Morningglory","[12]; Postemergence, 125 g ai/ha",10
same,"Plant response rating, Morningglory","[12]; Postemergence, 250 g ai/ha",10
same,"Plant response rating (0 to 100), Morningglory","[12]; Preemergence, 250 g ai/ha",100
same,Morningglory plant response rating,[12]; [23],100
same,"Nutsedge, Yellow plant response rating",[13]; [21],80
same,"Nutsedge, Yellow plant response rating",[13]; [22],95
same,"Plant response rating (0 to 100), Nutsedge, Yellow","[13]; Postemergence, 31 g ai/ha",0
same,"Plant response rating, Nutsedge, Yellow","[13]; Postemergence, 62 g ai/ha",0
same,"Plant response rating, Nutsedge, Yellow","[13]; Postemergence, 125 g ai/ha",0
same,"Plant response rating, Nutsedge, Yellow","[13]; Postemergence, 250 g ai/ha",10
same,"Plant response rating (0 to 100), Nutsedge, Yellow","[13]; Preemergence, 250 g ai/ha",100
same,"Nutsedge, Yellow plant response rating",[13]; [23],100
same,Pigweed plant response rating,[14]; [21],100
same,Pigweed plant response rating,[14]; [22],100
same,"Plant response rating (0 to 100), Pigweed","[14]; Postemergence, 31 g ai/ha",0
same,"Plant response rating (0 to 100), Pigweed","[14]; Postemergence, 62 g ai/ha",0
same,"Plant response rating, Pigweed","[14]; Postemergence, 125 g ai/ha",0
same,"Plant response rating, Pigweed","[14]; Postemergence, 250 g ai/ha",0
same,"Plant response rating (0 to 100), Pigweed","[14]; Preemergence, 250 g ai/ha",100
same,Pigweed plant response rating,[14]; [23],100
same,Soybean plant response rating,[15]; [21],0
same,"Plant response rating (0 to 100), Soybean","[15]; Postemergence, 31 g ai/ha",0
same,"Plant response rating (0 to 100), Soybean","[15]; Postemergence, 62 g ai/ha",20
same,"Plant response rating, Soybean","[15]; Postemergence, 125 g ai/ha",35
same,"Plant response rating, Soybean","[15]; Postemergence, 250 g ai/ha",70
same,"Plant response rating (0 to 100), Soybean","[15]; Preemergence, 250 g ai/ha",0
same,Sunflower plant response rating,[16]; 62 g ai/ha,55
same,"Plant response rating (0 to 100), Sunflower","[16]; Preemergence, 250 g ai/ha",85
same,Sunflower plant response rating,[16]; 125 g ai/ha,70

# Reference: US20100298141A1, “SUBSTITUTED PYRIDINE N-OXIDE HERBICIDES” (E. I. DU PONT DE NEMOURS AND COMPANY, priority 2007, published 2010)
